According to patent publication EP0043811A1, “Indolo-naphthyridines and their use as medicaments” (OMNICHEM Société anonyme, priority 1980, dated 1982):

Key:
[1] = Acute toxicity (LD50) in mice, intravenous; conditions: mouse, in vivo, read-out: DL50 iv
Source text: Les composés de l'invention ont été administrés sous forme de chlorhydrate par voie intraveineuse à des souris de souche Charles River. Les doses létales 50 % (DL50) ont été déterminées graphiquement selon la méthode de Lichtfield et Wilcoxon (J. Pharmacol.Exp. Thérap. […]).

[2] = system: souris, de souche Charles River; test: Hypobaric anoxia test in mice (survival time); assay type: in vivo; conditions: ratio of DL50/DE50 of the product to DL50/DE50 of vincamine; DE50 = dose raising mean survival time by 50 %; p.o. 30 min before test; 190 mm Hg (5,25 % oxygen)
Protocol: Des souris de même sexe, de souche Charles River, pesant environ 20 + 2 g sont réparties en trois lots de 10 animaux. Les lots 1 et 2 comportent les animaux traités, c'est à dire ayant reçu la substance à tester de l'invention. Un troisième lot comporte des animaux témoins.
Les composés étudiés sont administrés p.o. 30 minutes avant l'essai. Les animaux sont placés dans une atmosphère appauvrie en oxygène par réalisation d'un vide partiel (190 mm Hg, correspondant à 5,25 % d'oxygène), ces conditions étant obtenues en 30 secondes). On mesure le temps de survie des souris au moyen d'un chronomètre. Les agents capables de favoriser l'oxygénation tissulaire et en particulier cérébrale, entraînent un accroissement du temps de survie et l'on peut exprimer par la dose efficace 50 % (DE50), la dose qui augmente de 50 % le temps de survie moyen des animaux placés dans les conditions décrites ci-dessus.
L'indice vincaminique correspond au rapport de la ^DL50/D^E50 du produit à la DL5ODE50 de la vincamine. Le tableau suivant rassemble les doses léthales et les indices vincaminiques observés pour divers composés de la présente invention.

[3] = system: chien anesthésié au Nembutal; test: Haemodynamics and cerebral oxygen consumption in the dog anaesthetised with Nembutal; assay type: in vivo
Source text: Chez le chien anesthésié au Nembutal, les composés de l'invention, en particulier Ib', augmentent les débits sanguins artériels des artères fémorales et vertébrales et stimulent de façon marquée (+ 50 %) la consommation apparente du cerveau en oxygène. L'effet sur la fréquence cardiaque est par ailleurs peu marqué, contrairement au cas de la vincamine.

[4] = system: ptose palpébrale induite par la réserpine; test: Reserpine-induced palpebral ptosis test in mice; assay type: in vivo, souris; conditions: mouse
Source text: Le canthène Ib s'est en outre révélé très actif au test à la ptose palpébrale induite par la réserpine che la souris. […] La combinaison des propriétés antianoxiques et antidépressives confèrent aux composés de l'invention un intérêt thérapeutique original.

monoamine oxydase = test: Monoamine oxidase inhibitor (IMAO) character, method not described

Structure (SMILES) | LD50 [1] [mg/kg] | ind.vincam. hypobare [2] | débits sanguins artériels des artères fémorales et vertébrales [3] | effet sur la fréquence cardiaque ([3]; stated in contrast to vincamine) | test à la ptose palpébrale induite par la réserpine [4] | caractéristique d'inhibiteur de monoamine oxydase (IMAO) (monoamine oxydase)
CCN1CCc2c3n(c4ccccc24)C(O)CCC31 (stereo not shown) [Exemple 2, Hydroxy-6 éthyl-3 1,2,3,3a,4,5 hexahydro 6H indolo (3, 2,1, -de) 1,5 naphtyridine] | 21 | 2 | – | – | – | –
CCN1CCc2c3n(c4ccccc24)C=CCC31 (stereo not shown) [Exemple 3, Ethyl-3 tétrahydro-1,2,3,3a 4H indolo (3,2,1-de) 1,5 naphtyridine] | 46 | 2 (Ib') | augmentent | peu marqué | très actif | aucune caractéristique d'inhibiteur de monoamine oxydase
CCN1CCc2c3n(c4ccccc24)CCCC31 (stereo not shown) [Exemple 4, Ethyl-3 hexahydro-1,2,3,3a,4,5-6H indolo (3,2,1-de) 1,5 naphtyridine] | 14 | 2 | – | – | – | –
